Results reported in the NIST ThermoML archive (doi:10.1021/acs.jced.7b00712).
± gives the expanded uncertainty stated by the source.

Conditions: Liquid, Brillouin light scattering

CCCCCCCC [octane]
Conditions | speed of sound [m/s]
296.97 K, 100 kPa | 1173 ± 15
297.28 K, 4000 kPa | 1196.5 ± 16
297.34 K, 7000 kPa | 1222 ± 16
297.35 K, 12000 kPa | 1250.8 ± 16
297.38 K, 10000 kPa | 1242.7 ± 16
303.33 K, 7000 kPa | 1199.7 ± 16
303.38 K, 10000 kPa | 1213.7 ± 16
303.42 K, 12000 kPa | 1233 ± 16
303.53 K, 4000 kPa | 1172.7 ± 15
303.61 K, 100 kPa | 1151.7 ± 15
318.11 K, 10000 kPa | 1164.8 ± 15
318.3 K, 4000 kPa | 1121.2 ± 15
318.35 K, 7000 kPa | 1141.4 ± 15
318.37 K, 100 kPa | 1089.5 ± 14
318.37 K, 12000 kPa | 1184.5 ± 15
332.26 K, 4000 kPa | 1066.7 ± 14
332.32 K, 10000 kPa | 1108.6 ± 14
332.33 K, 7000 kPa | 1089.1 ± 14
332.5 K, 100 kPa | 1029.1 ± 13
332.56 K, 12000 kPa | 1128.3 ± 15
347.29 K, 7000 kPa | 1031.9 ± 13
347.37 K, 10000 kPa | 1053.4 ± 14
347.4 K, 4000 kPa | 1007.2 ± 13
347.46 K, 12000 kPa | 1072.7 ± 14
347.68 K, 100 kPa | 970.1 ± 13
362.12 K, 10000 kPa | 1006.2 ± 13
362.17 K, 7000 kPa | 979.6 ± 13
362.28 K, 4000 kPa | 955.4 ± 12
362.53 K, 100 kPa | 912.3 ± 12
363.67 K, 12000 kPa | 1027.8 ± 13
377.03 K, 4000 kPa | 909.7 ± 12
377.33 K, 7000 kPa | 933.5 ± 12
377.35 K, 10000 kPa | 960.5 ± 12
377.5 K, 100 kPa | 855.4 ± 11
379.75 K, 12000 kPa | 973.9 ± 13
390.8 K, 4000 kPa | 860.1 ± 11
391 K, 7000 kPa | 892.3 ± 12
391.09 K, 10000 kPa | 917.4 ± 12
391.61 K, 100 kPa | 806.4 ± 10
394.67 K, 12000 kPa | 920.8 ± 12
403.71 K, 12000 kPa | 896.1 ± 12
407.38 K, 4000 kPa | 802.1 ± 10
407.45 K, 10000 kPa | 865.2 ± 11
407.46 K, 7000 kPa | 836.9 ± 11
412.59 K, 4000 kPa | 786.2 ± 10
412.65 K, 7000 kPa | 818.8 ± 11
412.71 K, 10000 kPa | 846.7 ± 11
414.33 K, 12000 kPa | 864 ± 11
422.61 K, 10000 kPa | 818.2 ± 11
422.69 K, 12000 kPa | 844.3 ± 11
422.73 K, 4000 kPa | 747.2 ± 9.8
422.88 K, 7000 kPa | 784.5 ± 10
431.77 K, 12000 kPa | 815.2 ± 11
431.82 K, 4000 kPa | 720.1 ± 9.4
431.88 K, 7000 kPa | 754.2 ± 9.9
431.92 K, 10000 kPa | 789.8 ± 10
442.23 K, 4000 kPa | 682.1 ± 8.9
442.49 K, 7000 kPa | 723.8 ± 9.5
442.65 K, 10000 kPa | 755.7 ± 9.9
442.73 K, 12000 kPa | 779.7 ± 10
452.55 K, 4000 kPa | 646.4 ± 8.5
452.64 K, 7000 kPa | 689.9 ± 9
452.77 K, 10000 kPa | 728.1 ± 9.5
452.88 K, 12000 kPa | 750.8 ± 9.8
462.37 K, 4000 kPa | 614.7 ± 8.1
462.45 K, 7000 kPa | 660.1 ± 8.7
462.61 K, 12000 kPa | 724.2 ± 9.4
465.54 K, 10000 kPa | 695.8 ± 9.1
472.05 K, 4000 kPa | 579.7 ± 7.7
472.15 K, 7000 kPa | 631.6 ± 8.3
472.28 K, 10000 kPa | 676.9 ± 8.9
472.38 K, 12000 kPa | 693.8 ± 9.1
482.98 K, 4000 kPa | 543 ± 7.2
483.04 K, 7000 kPa | 599.7 ± 7.9
483.12 K, 10000 kPa | 646.1 ± 8.5
483.14 K, 12000 kPa | 672.7 ± 8.8
493.41 K, 4000 kPa | 503.5 ± 6.7
493.48 K, 7000 kPa | 565.4 ± 7.5
493.62 K, 10000 kPa | 614.7 ± 8.1
493.73 K, 12000 kPa | 645 ± 8.5
502.54 K, 4000 kPa | 477.8 ± 6.4
502.73 K, 7000 kPa | 537.1 ± 7.1
502.95 K, 10000 kPa | 590.5 ± 7.8
503.17 K, 12000 kPa | 616.5 ± 8.1
513 K, 4000 kPa | 439.1 ± 6
513.26 K, 7000 kPa | 506.5 ± 6.8
513.46 K, 10000 kPa | 563.1 ± 7.5
513.67 K, 12000 kPa | 591.5 ± 7.8
522.92 K, 4000 kPa | 407.7 ± 5.7
523.17 K, 12000 kPa | 570.6 ± 7.6
523.46 K, 7000 kPa | 478.6 ± 6.5
523.6 K, 10000 kPa | 533.3 ± 7.1
532.23 K, 4000 kPa | 373.2 ± 5.3
532.36 K, 7000 kPa | 450.6 ± 6.2
532.59 K, 10000 kPa | 511.4 ± 6.8
532.79 K, 12000 kPa | 545.1 ± 7.2
537.4 K, 4000 kPa | 354.7 ± 5.1
537.75 K, 7000 kPa | 436.8 ± 6
538.1 K, 10000 kPa | 497.5 ± 6.7
538.41 K, 12000 kPa | 530.4 ± 7
542.87 K, 4000 kPa | 337.8 ± 5
543.27 K, 12000 kPa | 520.1 ± 6.9
543.83 K, 7000 kPa | 422 ± 5.8
544.52 K, 10000 kPa | 483.1 ± 6.5
546.68 K, 4000 kPa | 325.7 ± 4.8
547.82 K, 7000 kPa | 406.8 ± 5.7
548.6 K, 10000 kPa | 471.5 ± 6.4
549.27 K, 12000 kPa | 505.4 ± 6.7
550.42 K, 4000 kPa | 315.2 ± 4.7
552.01 K, 7000 kPa | 398.1 ± 5.6
552.52 K, 10000 kPa | 465.1 ± 6.3
552.88 K, 12000 kPa | 500.8 ± 6.7
557.27 K, 4000 kPa | 290.5 ± 4.5
558.19 K, 7000 kPa | 380.2 ± 5.4
558.64 K, 10000 kPa | 448 ± 6.1
559.37 K, 12000 kPa | 486.2 ± 6.5
561.2 K, 4000 kPa | 276.7 ± 4.5
561.87 K, 7000 kPa | 372.6 ± 5.3
562.27 K, 10000 kPa | 441.3 ± 6
562.71 K, 12000 kPa | 477.8 ± 6.4
566.82 K, 7000 kPa | 356.5 ± 5.2
566.96 K, 10000 kPa | 430.4 ± 5.9
567.01 K, 4000 kPa | 257.3 ± 4.3
567.1 K, 12000 kPa | 471 ± 6.3
570.16 K, 4000 kPa | 245.6 ± 4.2
570.2 K, 7000 kPa | 347.6 ± 5.1
570.48 K, 10000 kPa | 424 ± 5.8
570.75 K, 12000 kPa | 461 ± 6.2
